ChEMBL document CHEMBL1138163, “Potent 2-[(pyrimidin-4-yl)amine}-1,3-thiazole-5-carbonitrile-based inhibitors of VEGFR-2 (KDR) kinase” (Bioorg Med Chem Lett, 2006)

Key:
[1] = Volume of distribution in Beagle dog at 0.25 mg/kg, iv; type: ADME, organism-based, Canis lupus familiaris; set-up: dose 0.25 mg/kg, route intravenous; conditions: in vivo, read-out: Vdss
Canis familiaris = experiment: AUC in Beagle dog at 0.25 mg/kg, iv; type: ADME, organism-based, Canis lupus familiaris, Plasma; set-up: dose 0.25 mg/kg, route intravenous; conditions: in vivo
[2] = target: Voltage-gated inwardly rectifying potassium channel KCNH2 (Homo sapiens, UniProt Q12809); experiment: Displacement of [3H]dofetilide from human ERG
[3] = Half life in Beagle dog at 0.25 mg/kg, iv; type: ADME, organism-based, Canis lupus familiaris; set-up: dose 0.25 mg/kg, route intravenous; conditions: in vivo
[4] = Clearance in rhesus monkey at 1 mg/kg, iv and 1 mg/kg, po; type: ADME, organism-based, Macaca mulatta; conditions: in vivo
[5] = Oral bioavailability in dog at 1 mg/kg, po; type: ADME, organism-based, Canis lupus familiaris; conditions: in vivo
[6] = Volume of distribution in dog at 1 mg/kg, iv and 1 mg/kg, po; type: ADME, organism-based, Canis lupus familiaris; conditions: in vivo, read-out: Vdss
[7] = Clearance in rat at 2 mg/kg, iv and 10 mg/kg, po; type: ADME, organism-based; conditions: in vivo
[8] = Clearance in dog at 1 mg/kg, iv and 1 mg/kg, po; type: ADME, organism-based, Canis lupus familiaris; conditions: in vivo
[9] = Oral bioavailability in rat at 10 mg/kg, po; type: ADME, organism-based; conditions: in vivo
[10] = Volume of distribution in rat at 2 mg/kg, iv and 10 mg/kg, po; type: ADME, organism-based; conditions: in vivo, read-out: Vdss
[11] = Oral bioavailability in rhesus monkey at 1 mg/kg, po; type: ADME, organism-based, Macaca mulatta; conditions: in vivo
[12] = Volume of distribution in rhesus monkey at 1 mg/kg, iv and 1 mg/kg, po; type: ADME, organism-based, Macaca mulatta; conditions: in vivo, read-out: Vdss

Voltage-gated inwardly rectifying potassium channel KCNH2, sequence (Q12809 whole entry): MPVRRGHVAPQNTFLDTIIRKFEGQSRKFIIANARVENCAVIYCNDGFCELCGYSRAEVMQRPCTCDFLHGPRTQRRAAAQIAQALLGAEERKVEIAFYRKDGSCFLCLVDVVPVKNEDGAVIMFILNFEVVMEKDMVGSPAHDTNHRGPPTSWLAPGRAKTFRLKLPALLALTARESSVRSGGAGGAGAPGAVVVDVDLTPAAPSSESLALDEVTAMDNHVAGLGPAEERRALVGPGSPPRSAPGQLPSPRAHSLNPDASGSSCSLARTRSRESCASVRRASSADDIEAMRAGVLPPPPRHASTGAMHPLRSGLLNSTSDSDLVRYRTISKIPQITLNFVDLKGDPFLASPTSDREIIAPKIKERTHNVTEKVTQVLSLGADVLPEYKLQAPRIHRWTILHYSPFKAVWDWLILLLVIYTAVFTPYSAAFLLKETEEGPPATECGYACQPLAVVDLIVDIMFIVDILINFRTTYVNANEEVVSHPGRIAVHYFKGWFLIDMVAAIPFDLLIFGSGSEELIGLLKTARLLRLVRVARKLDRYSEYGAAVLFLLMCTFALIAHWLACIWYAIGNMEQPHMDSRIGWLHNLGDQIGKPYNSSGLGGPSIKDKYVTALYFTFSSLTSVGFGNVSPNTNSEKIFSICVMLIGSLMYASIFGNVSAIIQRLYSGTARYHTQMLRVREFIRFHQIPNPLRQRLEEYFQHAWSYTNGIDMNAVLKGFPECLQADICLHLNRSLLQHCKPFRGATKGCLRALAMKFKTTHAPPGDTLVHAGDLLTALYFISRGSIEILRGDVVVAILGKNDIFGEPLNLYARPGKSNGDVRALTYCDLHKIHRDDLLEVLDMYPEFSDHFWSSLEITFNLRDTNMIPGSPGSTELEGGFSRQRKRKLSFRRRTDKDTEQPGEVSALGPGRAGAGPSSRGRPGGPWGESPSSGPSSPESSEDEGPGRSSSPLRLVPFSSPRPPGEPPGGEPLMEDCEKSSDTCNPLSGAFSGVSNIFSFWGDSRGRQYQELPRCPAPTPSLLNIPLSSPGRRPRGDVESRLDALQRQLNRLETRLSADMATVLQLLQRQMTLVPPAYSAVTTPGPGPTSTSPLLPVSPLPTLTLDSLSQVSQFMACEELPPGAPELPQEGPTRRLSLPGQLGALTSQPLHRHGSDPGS

Compound | Vd [1] | AUC (Canis familiaris) | Activity [2] | half-life [3] | also measured
N#Cc1cnc(Nc2cc(N3CCN(CCCN4CCOCC4)CC3)ncn2)s1 | 14.8 L/kg | 3.08 µM·h | 4.003 µM | 7.97 h | 
N#Cc1cnc(Nc2ccnc(N)n2)s1 |  |  | > 10 µM |  | 
CC(=O)N1CCN(c2cc(Nc3ncc(C#N)s3)ncn2)CC1 |  |  | 3.291 µM |  | 
N#Cc1cnc(Nc2cc(N3CCC(N)CC3)ncn2)s1 | 3.65 L/kg | 1.91 µM·h | 6.643 µM | 1.34 h | 
COCCN1CCN(c2cc(Nc3ncc(C#N)s3)ncn2)CC1 | 1.31 L/kg | 4.81 µM·h |  | 2 h | 
N#Cc1cnc(Nc2cc(N3CCN(CCN4CCOCC4)CC3)ncn2)s1 | 2.4 L/kg | 10.2 µM·h | 5 µM | 10.5 h | clearance [4]: 22.7 mL/min/kg; bioavailability [5]: 51%; Vd [6]: 2.72 L/kg; clearance [7]: 38.7 mL/min/kg; clearance [8]: 4.11 mL/min/kg; bioavailability [9]: > 99%; Vd [10]: 3.32 L/kg; bioavailability [11]: 54%; Vd [12]: 10.1 L/kg
N#Cc1cnc(Nc2cc(N3CCN(CCN4CCCC4)CC3)ncn2)s1 | 14.1 L/kg | 6.07 µM·h | 0.383 µM | 23 h | 
N#Cc1cnc(Nc2cc(N)ncn2)s1 |  |  | > 10 µM |  | 
N#Cc1cnc(Nc2cc(N3CCCNCC3)ncn2)s1 |  |  | 2.951 µM |  | 
CN1CCN(c2cc(Nc3ncc(C#N)s3)ncn2)CC1 |  |  | 0.923 µM |  | 
N#Cc1cnc(Nc2ccncn2)s1 |  |  | 2.932 µM |  | 
N#Cc1cnc(Nc2cc(N3CCCC(N)CC3)ncn2)s1 (stereo not given) |  |  | 1.012 µM |  | 
